Test results as given in US20100041613A1, “NOVEL ANTIBIOTIC COMPOSITIONS” (priority 2006, published 2010).
Converted amounts (≈) assume the structure as drawn.

How the values were obtained:
[1] = tested on: methicillin resistant Staphylococcus aureus (MRSA) ATCC#33591; experiment: microbe, parasite or virus in culture; format: cell-based
Procedure: (§1) Antibiotic compositions of the invention were tested for antimicrobial activity against methicillin resistant Staphylococcus aureus (MRSA) ATCC#33591 and vancomycin resistant Enterococcus faecalis (VRE) ATCC#51575. Pathogen cultures were grown in tryptic soya broth (TSB) with 5 g/L NaCl (TSB+) overnight (˜18 hrs) at 37° C. The cultures were removed from the incubator and refrigerated at least 3 hours to stop further culture growth. Determined aliquot ratios of culture to broth to obtain approximately 2.5×10^5 CFU/ml., for which accurate counts were measured by serial dilution onto Tryptic Soy Agar with 5 g/L NaCl (TSA+) plates. Two fold dilution series' of […] were prepared for MRSA and VRE, respectively. All components except thiazolyl blue tetrazolium bromide (MTT) were added to the wells prior to an initial overnight incubation at 37° C. MTT was added to each well, 29 μl or […], for MRSA or VRE plates, respectively, followed by 1 hour incubation at 37° C. Vancomycin and/or Zyvoxam were included as reference compounds with vancomycin prepared in the same way as the test compounds. Zyvoxam was supplied as a 2 mg/ml solution. Minimum inhibitory concentration (MIC) endpoints were read as the lowest concentration showing no visible growth.

[2] = tested on: vancomycin resistant Enterococcus faecalis (VRE) ATCC#51575; experiment: organism not typed; format: cell-based
Procedure: as §1

[3] = MRSA, lowest concentration showing no visible growth, overnight incubation at 37° C.
[4] = VRE, lowest concentration showing no visible growth, overnight incubation at 37° C.

## CN[C@H](CC(C)C)C(=O)N[C@H]1C(=O)N[C@@H](CC(N)=O)C(=O)N[C@H]2C(=O)N[C@H]3C(=O)N[C@H](C(=O)N[C@H](C(=O)O)c4cc(O)cc(O)c4-c4cc3ccc4O)[C@H](O)c3ccc(c(Cl)c3)Oc3cc2cc(c3O[C@@H]2O[C@H](CO)[C@@H](O)[C@H](O)[C@H]2O[C@H]2C[C@](C)(N)[C@H](O)[C@H](C)O2)Oc2ccc(cc2Cl)[C@H]1O [vancomycin]
[1]; Staphylococcus aureus, read-out: minimum inhibitory concentration against MRSA
  MIC: 1.2 µg/mL (≈ 0.828 µM)
[2]; read-out: minimum inhibitory concentration against VRE
  MIC: 500 µg/mL (≈ 345 µM)

## C=C1NC(=O)[C@H]([C@@H](C)CC)NC(=O)[C@H](NC(=O)C(=CC)NC(=O)[C@@H](N)[C@@H](C)CC)CSC[C@@H](C(=O)N[C@H]2C(=O)N3CCC[C@H]3C(=O)NCC(=O)N[C@H](C(=O)N[C@@H](CCCCN)C(=O)NCCCCCCNC(=O)[C@H]3NC(=O)[C@H]4NC(=O)[C@H](NC(=O)[C@@H]5NC(=O)[C@H](CC(N)=O)NC(=O)[C@H](NC(=O)[C@@H](CC(C)C)NC)[C@H](O)c6ccc(c(Cl)c6)Oc6cc5cc(c6O[C@@H]5O[C@H](CO)[C@@H](O)[C@H](O)[C@H]5O[C@H]5C[C@](C)(N)[C@H](O)[C@H](C)O5)Oc5ccc(cc5Cl)[C@H]4O)c4ccc(O)c(c4)-c4c(O)cc(O)cc43)CSC2C)NC(=O)[C@H](CC(C)C)NC1=O (stereo partly shown) [Example 2, nisin(1-12)-1,6-diaminohexane-vancomycin]
[1]; methicillin resistant ATCC#33591, 18 h
  minimum inhibitory concentration against MRSA: 0.04 µg/mL (≈ 0.0149 µM)
[2]; vancomycin resistant (VRE) ATCC#51575, 18 h
  minimum inhibitory concentration against VRE: 20 µg/mL (≈ 7.46 µM)

## Nisin[1-12] polypeptide fragment
[1]; MRSA, did not inhibit at as high as the stated concentration
  highest concentration at which MRSA was not inhibited: > 10 µg/mL
[2]; VRE, did not inhibit at as high as the stated concentration
  highest concentration at which VRE was not inhibited: > 40 µg/mL

## nisin
[1]; [3]
  minimum inhibitory concentration against MRSA: 0.3 to 0.6 µg/mL
[2]; [4]
  minimum inhibitory concentration against VRE: 5 to 10 µg/mL

## CC(=O)NC[C@H]1CN(c2ccc(N3CCOCC3)c(F)c2)C(=O)O1 [zyvoxam]
[1]; [3]
  minimum inhibitory concentration against MRSA: 0.3 µg/mL (≈ 0.889 µM)
[2]; [4]
  minimum inhibitory concentration against VRE: 1.2 µg/mL (≈ 3.56 µM)
